# Tested on: Crude diglycosidase
# Experiment: Examination of pH in the conversion into isoflavone aglycons by diglycosidase using soybean materials
# Type: biochemical, Penicillium multicolor IAM7153
# Set-up: Decomposition efficiency of genistin family in soymilk / Decomposition efficiency of genistin family in defatted soybean / Decomposition efficiency of daidzin family in defatted soybean: concentration or dose not given beside the values
# Details: for Decomposition efficiency of daidzin family in roasted soy flour: 55° C.
# Procedure: A substrate solution of 450 μL was prepared by suspending 50 mg of each soybean material (roasted soy flour (manufactured by Fuji Shokuryo K.K.), soymilk (manufactured by Gitoh Shokuhin K.K.), defatted soybean (manufactured by Fuji Seiyu K.K.), concentrated soybean protein (manufactured by Fuji Seiyu K.K.)), and adjusting the pH to 2 to 11 with hydrochloric acid or sodium hydroxide. Each enzyme solution of pH 2–11 wherein diglycosidase activity of crude diglycosidase was adjusted to 1.88 AU/mL was added thereto in an amount of 50 μL and the whole was reacted at 55° C. at the total volume of 500 μL. To the reaction mixture was added 700 μL of ethanol after 0, 1, 3, and 6 hours of the reaction. After stirring and ultrasonication, the mixture was subjected to centrifugal separation at 15,000 rpm and 4° C. for 10 minutes. The supernatant was filtered through a filter and the existence of isoflavone glycosides and aglycon isoflavones contained in the reaction mixture was detected by HLPC (Tables 15 to 26).
# [1] = pH6.6, heat treatment of enzyme: no, reaction time 0 h
# [2] = pH6.6, heat treatment of enzyme: no, reaction time 1 h
# [3] = pH6.6, heat treatment of enzyme: no, reaction time 3 h
# [4] = pH6.6, heat treatment of enzyme: no, reaction time 6 h
# [5] = pH6.6, heat treatment of enzyme: yes, reaction time 6 h
smiles,measurement,setting,value
"O=C(O)CC(=O)OC[C@H]1O[C@@H](Oc2ccc3c(=O)c(-c4ccc(O)cc4)coc3c2)[C@H](O)[C@@H](O)[C@@H]1O [malonyldaidzin, 6″-O-malonyldaidzin]",Decomposition efficiency of daidzin family in roasted soy flour,"pH5, heat treatment of enzyme no, reaction time 0 h",not detected
same,Decomposition efficiency of daidzin family in roasted soy flour,"pH5, heat treatment of enzyme no, reaction time 1 h",not detected
same,Decomposition efficiency of daidzin family in roasted soy flour,"pH5, heat treatment of enzyme no, reaction time 3 h",not detected
same,Decomposition efficiency of daidzin family in roasted soy flour,"pH5, heat treatment of enzyme no, reaction time 6 h",not detected
same,Decomposition efficiency of daidzin family in roasted soy flour,"pH5, heat treatment of enzyme yes, reaction time 6 h",not detected
same,Decomposition efficiency of daidzin family in concentrated soybean protein,"pH5.1, heat treatment of enzyme: no, reaction time 0 h",not detected
same,Decomposition efficiency of daidzin family in concentrated soybean protein,"pH5.1, heat treatment of enzyme: no, reaction time 1 h",not detected
same,Decomposition efficiency of daidzin family in concentrated soybean protein,"pH5.1, heat treatment of enzyme: no, reaction time 3 h",not detected
same,Decomposition efficiency of daidzin family in concentrated soybean protein,"pH5.1, heat treatment of enzyme: no, reaction time 6 h",not detected
same,Decomposition efficiency of daidzin family in concentrated soybean protein,"pH5.1, heat treatment of enzyme: yes, reaction time 6 h",not detected
same,Decomposition efficiency of daidzin family in defatted soybean,"pH5.4, heat treatment of enzyme: no, reaction time 0 h",40.7%
same,Decomposition efficiency of daidzin family in defatted soybean,"pH5.4, heat treatment of enzyme: no, reaction time 1 h",44.2%
same,Decomposition efficiency of daidzin family in defatted soybean,"pH5.4, heat treatment of enzyme: no, reaction time 3 h",41.5%
same,Decomposition efficiency of daidzin family in defatted soybean,"pH5.4, heat treatment of enzyme: no, reaction time 6 h",36.9%
same,Decomposition efficiency of daidzin family in defatted soybean,"pH5.4, heat treatment of enzyme: yes, reaction time 6 h",44.9%
same,Decomposition efficiency of daidzin family in soymilk,"pH6.2, heat treatment of enzyme: no, reaction time 0 h",56.2%
same,Decomposition efficiency of daidzin family in soymilk,"pH6.2, heat treatment of enzyme: no, reaction time 1 h",54.1%
same,Decomposition efficiency of daidzin family in soymilk,"pH6.2, heat treatment of enzyme: no, reaction time 3 h",46.4%
same,Decomposition efficiency of daidzin family in soymilk,"pH6.2, heat treatment of enzyme: no, reaction time 6 h",41.9%
same,Decomposition efficiency of daidzin family in soymilk,"pH6.2, heat treatment of enzyme: yes, reaction time 6 h",49.7%
same,Decomposition efficiency of daidzin family in roasted soy flour,"pH6.5, heat treatment of enzyme no, reaction time 0 h",not detected
same,Decomposition efficiency of daidzin family in roasted soy flour,"pH6.5, heat treatment of enzyme no, reaction time 1 h",not detected
same,Decomposition efficiency of daidzin family in roasted soy flour,"pH6.5, heat treatment of enzyme no, reaction time 3 h",not detected
same,Decomposition efficiency of daidzin family in roasted soy flour,"pH6.5, heat treatment of enzyme no, reaction time 6 h",not detected
same,Decomposition efficiency of daidzin family in roasted soy flour,"pH6.5, heat treatment of enzyme yes, reaction time 6 h",not detected
same,Decomposition efficiency of daidzin family in concentrated soybean protein,[1],not detected
same,Decomposition efficiency of daidzin family in defatted soybean,[1],43.1%
same,Decomposition efficiency of daidzin family in concentrated soybean protein,[2],not detected
same,Decomposition efficiency of daidzin family in defatted soybean,[2],45.9%
same,Decomposition efficiency of daidzin family in concentrated soybean protein,[3],not detected
same,Decomposition efficiency of daidzin family in defatted soybean,[3],44.0%
same,Decomposition efficiency of daidzin family in concentrated soybean protein,[4],not detected
same,Decomposition efficiency of daidzin family in defatted soybean,[4],41.8%
same,Decomposition efficiency of daidzin family in concentrated soybean protein,[5],not detected
same,Decomposition efficiency of daidzin family in defatted soybean,[5],41.2%
same,Decomposition efficiency of daidzin family in soymilk,"pH7.2, heat treatment of enzyme: no, reaction time 0 h",56.1%
same,Decomposition efficiency of daidzin family in soymilk,"pH7.2, heat treatment of enzyme: no, reaction time 1 h",56.4%
same,Decomposition efficiency of daidzin family in soymilk,"pH7.2, heat treatment of enzyme: no, reaction time 3 h",52.4%
same,Decomposition efficiency of daidzin family in soymilk,"pH7.2, heat treatment of enzyme: no, reaction time 6 h",48.2%
same,Decomposition efficiency of daidzin family in soymilk,"pH7.2, heat treatment of enzyme: yes, reaction time 6 h",48.3%
same,Decomposition efficiency of daidzin family in defatted soybean,"pH7.8, heat treatment of enzyme: no, reaction time 0 h",42.0%
same,Decomposition efficiency of daidzin family in defatted soybean,"pH7.8, heat treatment of enzyme: no, reaction time 1 h",43.6%
same,Decomposition efficiency of daidzin family in defatted soybean,"pH7.8, heat treatment of enzyme: no, reaction time 3 h",41.4%
same,Decomposition efficiency of daidzin family in defatted soybean,"pH7.8, heat treatment of enzyme: no, reaction time 6 h",38.7%
same,Decomposition efficiency of daidzin family in defatted soybean,"pH7.8, heat treatment of enzyme: yes, reaction time 6 h",36.7%
same,Decomposition efficiency of daidzin family in roasted soy flour,"pH8.5, heat treatment of enzyme no, reaction time 0 h",not detected
same,Decomposition efficiency of daidzin family in roasted soy flour,"pH8.5, heat treatment of enzyme no, reaction time 1 h",not detected
same,Decomposition efficiency of daidzin family in roasted soy flour,"pH8.5, heat treatment of enzyme no, reaction time 3 h",not detected
same,Decomposition efficiency of daidzin family in roasted soy flour,"pH8.5, heat treatment of enzyme no, reaction time 6 h",not detected
same,Decomposition efficiency of daidzin family in roasted soy flour,"pH8.5, heat treatment of enzyme yes, reaction time 6 h",not detected
same,Decomposition efficiency of daidzin family in concentrated soybean protein,"pH8.6, heat treatment of enzyme: no, reaction time 0 h",not detected
same,Decomposition efficiency of daidzin family in concentrated soybean protein,"pH8.6, heat treatment of enzyme: no, reaction time 1 h",not detected
same,Decomposition efficiency of daidzin family in concentrated soybean protein,"pH8.6, heat treatment of enzyme: no, reaction time 3 h",not detected
same,Decomposition efficiency of daidzin family in concentrated soybean protein,"pH8.6, heat treatment of enzyme: no, reaction time 6 h",not detected
same,Decomposition efficiency of daidzin family in concentrated soybean protein,"pH8.6, heat treatment of enzyme: yes, reaction time 6 h",not detected
same,Decomposition efficiency of daidzin family in soymilk,"pH11.6, heat treatment of enzyme: no, reaction time 0 h",52.5%
same,Decomposition efficiency of daidzin family in soymilk,"pH11.6, heat treatment of enzyme: no, reaction time 1 h",56.4%
same,Decomposition efficiency of daidzin family in soymilk,"pH11.6, heat treatment of enzyme: no, reaction time 3 h",50.4%
same,Decomposition efficiency of daidzin family in soymilk,"pH11.6, heat treatment of enzyme: no, reaction time 6 h",47.7%
same,Decomposition efficiency of daidzin family in soymilk,"pH11.6, heat treatment of enzyme: yes, reaction time 6 h",46.1%
